# Measurements as given in patent US20210198204A1, “PRODRUGS OF KALLIKREIN INHIBITORS” (BioCryst Pharmaceuticals, Inc., priority 2016, published 2021).
# Assay: Plasma pharmacokinetics of the parent compound after a single oral dose of prodrug
# Assay type: in vivo
# Conditions: single oral dose 10 mg/kg, fasted male Sprague Dawley rats; plasma analyzed for the parent compound; study duration 8 h
# Procedure, shortened: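 Three male Sprague Dawley rats, housed in metabolic cages and fasted about 15 hours, were weighed and received one oral gavage dose of 10 mg/kg as a solution in water or water/propylene glycol. Blood (approximately 500 μL) went into heparin tubes at set timepoints up to the study duration. Plasma was separated by centrifugation at 14,000 rpm for 3 min at 4° C, stored below −70° C, and assayed for the parent compound.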
row,Structure (SMILES),AUC0-last hour (area under the curve)
1,"C=Cc1cc(C(=O)Nc2ccc(C(=N)NC(=O)OC(C)C)cc2)c(-c2ccc(C(=O)NCC3CC3)nc2C(=O)OC(C)OC(=O)OC(C)C)cc1OC (centres unmarked) [Compound 63c, 1-((isopropoxycarbonyl)oxy)ethyl 6-((cyclopropylmethyl)carbamoyl)-3-(2-((4-(N-(isopropoxycarbonyl)carbamimidoyl)phenyl)carbamoyl)-5-methoxy-4-vinylphenyl)picolinate]","C (C >10,000 ng/mL)"
2,"C=Cc1cc(C(=O)Nc2ccc(C(=N)NC(=O)OC(C)OC(=O)C(C)C)cc2)c(-c2ccc(C(=O)NCC3CC3)nc2C(=O)OCOC(=O)[C@@H](N)C(C)C)cc1OC (stereo partly drawn) [Compound 64b, (((S)-2-amino-3-methylbutanoyl)oxy)methyl 6-((cyclopropylmethyl)carbamoyl)-3-(2-((4-(N-((1-(isobutyryloxy)ethoxy)carbonyl)carbamimidoyl)phenyl)carbamoyl)-5-methoxy-4-vinylphenyl)picolinate]","B (B = 1,001-10,000 ng/mL)"
3,"C=Cc1cc(C(=O)Nc2ccc(C(=N)NC(=O)OC3COCOC3)cc2)c(-c2ccc(C(=O)NCC3CC3)nc2C(=O)OC(C)OC(=O)C(C)C)cc1OC (centres unmarked) [Compound 65c, 1-(isobutyryloxy)ethyl 3-(2-((4-(N-(((1,3-dioxan-5-yl)oxy)carbonyl)carbamimidoyl)phenyl)carbamoyl)-5-methoxy-4-vinylphenyl)-6-((cyclopropylmethyl)carbamoyl)picolinate]","B (B = 1,001-10,000 ng/mL)"
4,"C=Cc1cc(C(=O)Nc2ccc(C(=N)NC(=O)OC(COC)COC)cc2)c(-c2ccc(C(=O)NCC3CC3)nc2C(=O)OC(C)OC(=O)C(C)C)cc1OC (centres unmarked) [Compound 66c, 1-(isobutyryloxy)ethyl 6-((cyclopropylmethyl)carbamoyl)-3-(2-((4-(N-(((1,3-dimethoxypropan-2-yl)oxy)carbonyl)carbamimidoyl)phenyl)carbamoyl)-5-methoxy-4-vinylphenyl)picolinate]","B (B = 1,001-10,000 ng/mL)"
5,"C=Cc1cc(C(=O)Nc2ccc(C(=N)NC(=O)OC3COCOC3)cc2)c(-c2ccc(C(=O)NCC3CC3)nc2C(=O)OC(C)OC(=O)OC(C)C)cc1OC (centres unmarked) [Compound 68a, 1-((isopropoxycarbonyl)oxy)ethyl 3-(2-((4-(N-(((1,3-dioxan-5-yl)oxy)carbonyl)carbamimidoyl)phenyl)carbamoyl)-5-methoxy-4-vinylphenyl)-6-((cyclopropylmethyl)carbamoyl)picolinate]","B (B = 1,001-10,000 ng/mL)"
6,"C=Cc1cc(C(=O)Nc2ccc(C(=N)NC(=O)OCCCCCC)cc2)c(-c2ccc(C(=O)NCC3CC3)nc2C(=O)OCOC(=O)[C@@H](N)Cc2ccccc2)cc1OC [Compound 69d, (S)-((2-amino-3-phenylpropanoyl)oxy)methyl 6-((cyclopropylmethyl)carbamoyl)-3-(2-((4-(N-((hexyloxy)carbonyl)carbamimidoyl)phenyl)carbamoyl)-5-methoxy-4-vinylphenyl)picolinate]","A (A = 0-1,000 ng/mL)"
7,"C=Cc1cc(C(=O)Nc2ccc(C(=N)NC(=O)OCCCCCC)cc2)c(-c2ccc(C(=O)NCC3CC3)nc2C(=O)OC(C)OC(=O)OC2CCCCC2)cc1OC (centres unmarked) [Compound 70d, 1-(((cyclohexyloxy)carbonyl)oxy)ethyl 6-((cyclopropylmethyl)carbamoyl)-3-(2-((4-(N-((hexyloxy)carbonyl)carbamimidoyl)phenyl)carbamoyl)-5-methoxy-4-vinylphenyl)picolinate]","B (B = 1,001-10,000 ng/mL)"
8,"C=Cc1cc(C(=O)Nc2ccc(C(=N)NC(=O)OCCC(=O)O)cc2)c(-c2ccc(C(=O)NCC3CC3)nc2C(=O)OC(C)OC(=O)OC(C)C)cc1OC (centres unmarked) [Compound 71a, 3-((((4-(2-(6-((cyclopropylmethyl)carbamoyl)-2-((1-((isopropoxycarbonyl)oxy)ethoxy)carbonyl)pyridin-3-yl)-4-methoxy-5-vinylbenzamido)phenyl)(imino)methyl)carbamoyl)oxy)propanoic acid]","A (A = 0-1,000 ng/mL)"
9,"C=Cc1cc(C(=O)Nc2ccc(C(=N)NC(=O)OCCCCCC)cc2)c(-c2ccc(C(=O)NCC3CC3)nc2C(=O)OCOC(=O)OC(C)C)cc1OC [Compound 72a, ((isopropoxycarbonyl)oxy)methyl 6-((cyclopropylmethyl)carbamoyl)-3-(2-((4-(N-((hexyloxy)carbonyl)carbamimidoyl)phenyl)carbamoyl)-5-methoxy-4-vinylphenyl)picolinate]","B (B = 1,001-10,000 ng/mL)"
10,"C=Cc1cc(C(=O)Nc2ccc(C(=N)NC(=O)OC[C@@H]3C[C@@H](O)CC(=O)O3)cc2)c(-c2ccc(C(=O)NCC3CC3)nc2C(=O)OC(C)OC(=O)C(C)C)cc1OC (stereo partly drawn) [Compound 73d, 1-(isobutyryloxy)ethyl 6-((cyclopropylmethyl)carbamoyl)-3-(2-((4-(N-((((2S,4R)-4-hydroxy-6-oxotetrahydro-2H-pyran-2-yl)methoxy)carbonyl)carbamimidoyl)phenyl)carbamoyl)-5-methoxy-4-vinylphenyl)picolinate]","A (A = 0-1,000 ng/mL)"
11,"C=Cc1cc(C(=O)Nc2ccc(C(=N)NC(=O)OCOC(=O)[C@@H](N)C(C)C)cc2)c(-c2ccc(C(=O)NCC3CC3)nc2C(=O)OCOC(=O)[C@@H](N)C(C)C)cc1OC [Compound 74e, (((S)-2-amino-3-methylbutanoyl)oxy)methyl 3-(2-((4-(N—(((((S)-2-amino-3-methylbutanoyl)oxy)methoxy)carbonyl)carbamimidoyl)phenyl)carbamoyl)-5-methoxy-4-vinylphenyl)-6-((cyclopropylmethyl)carbamoyl)picolinate]","B (B = 1,001-10,000 ng/mL)"
12,"C=Cc1cc(C(=O)Nc2ccc(C(=N)NC(=O)OCCN3CCOCC3)cc2)c(-c2ccc(C(=O)NCC3CC3)nc2C(=O)OC(C)OC(=O)C(C)C)cc1OC (centres unmarked) [Compound 75c, 1-(isobutyryloxy)ethyl 6-((cyclopropylmethyl)carbamoyl)-3-(5-methoxy-2-((4-(N-((2-morpholinoethoxy)carbonyl)carbamimidoyl)phenyl)carbamoyl)-4-vinylphenyl)picolinate]","B (B = 1,001-10,000 ng/mL)"
13,"C=Cc1cc(C(=O)Nc2ccc(C(=N)NC(=O)OCC3COC(C)(C)O3)cc2)c(-c2ccc(C(=O)NCC3CC3)nc2C(=O)OC(C)OC(=O)OC(C)C)cc1OC (centres unmarked) [Compound 77c, 1-((isopropoxycarbonyl)oxy)ethyl 6-((cyclopropylmethyl)carbamoyl)-3-(2-((4-(N-(((2,2-dimethyl-1,3-dioxolan-4-yl)methoxy)carbonyl)carbamimidoyl)phenyl)carbamoyl)-5-methoxy-4-vinylphenyl)picolinate]","B (B = 1,001-10,000 ng/mL)"
14,"C=Cc1cc(C(=O)Nc2ccc(C(=N)NC(=O)OCCOCC)cc2)c(-c2ccc(C(=O)NCC3CC3)nc2C(=O)OC(C)OC(=O)C(C)C)cc1OC (centres unmarked) [Compound 80c, 1-(isobutyryloxy)ethyl 6-((cyclopropylmethyl)carbamoyl)-3-(2-((4-(N-((2-ethoxyethoxy)carbonyl)carbamimidoyl)phenyl)carbamoyl)-5-methoxy-4-vinylphenyl)picolinate]","C (C >10,000 ng/mL)"
15,"C=Cc1cc(C(=O)Nc2ccc(C(=N)NC(=O)OCCCCCC)cc2)c(-c2ccc(C(=O)NCC3CC3)nc2C(=O)OC(C)OC(=O)NC(C)C)cc1OC (centres unmarked) [Compound 81d, 1-((isopropylcarbamoyl)oxy)ethyl 6-((cyclopropylmethyl)carbamoyl)-3-(2-((4-(N-((hexyloxy)carbonyl)carbamimidoyl)phenyl)carbamoyl)-5-methoxy-4-vinylphenyl)picolinate]","A (A = 0-1,000 ng/mL)"
16,"C=Cc1cc(C(=O)Nc2ccc(C(=N)NC(=O)OCCOCCC)cc2)c(-c2ccc(C(=O)NCC3CC3)nc2C(=O)OC(C)OC(=O)OC(C)C)cc1OC (centres unmarked) [Compound 83c, 1-((isopropoxycarbonyl)oxy)ethyl 6-((cyclopropylmethyl)carbamoyl)-3-(5-methoxy-2-((4-(N-((2-propoxyethoxy)carbonyl)carbamimidoyl)phenyl)carbamoyl)-4-vinylphenyl)picolinate]","B (B = 1,001-10,000 ng/mL)"
17,"C=Cc1cc(C(=O)Nc2ccc(C(=N)NC(=O)OCC(O)CO)cc2)c(-c2ccc(C(=O)NCC3CC3)nc2C(=O)OC(C)OC(=O)OC(C)C)cc1OC (centres unmarked) [Compound 84a, 1-((isopropoxycarbonyl)oxy)ethyl 6-((cyclopropylmethyl)carbamoyl)-3-(2-((4-(N-((2,3-dihydroxypropoxy)carbonyl)carbamimidoyl)phenyl)carbamoyl)-5-methoxy-4-vinylphenyl)picolinate]","A (A = 0-1,000 ng/mL)"
18,"C=Cc1cc(C(=O)Nc2ccc(C(=N)NC(=O)OCCO)cc2)c(-c2ccc(C(=O)NCC3CC3)nc2C(=O)OC(C)OC(=O)C(C)C)cc1OC (centres unmarked) [Compound 85d, 1-(isobutyryloxy)ethyl 6-((cyclopropylmethyl)carbamoyl)-3-(2-((4-(N-((2-hydroxyethoxy)carbonyl)carbamimidoyl)phenyl)carbamoyl)-5-methoxy-4-vinylphenyl)picolinate]","A (A = 0-1,000 ng/mL)"
19,"C=Cc1cc(C(=O)Nc2ccc(C(=N)NC(=O)OCCCCCC)cc2)c(-c2ccc(C(=O)NCC3CC3)nc2C(=O)OC(C)OC(=O)OCC2COC(C)(C)O2)cc1OC (centres unmarked) [Compound 87a, 1-((((2,2-dimethyl-1,3-dioxolan-4-yl)methoxy)carbonyl)oxy)ethyl 6-((cyclopropylmethyl)carbamoyl)-3-(2-((4-(N-((hexyloxy)carbonyl)carbamimidoyl)phenyl)carbamoyl)-5-methoxy-4-vinylphenyl)picolinate]","B (B = 1,001-10,000 ng/mL)"
20,"C=Cc1cc(C(=O)Nc2ccc(C(=N)NC(=O)OCCCCCC)cc2)c(-c2ccc(C(=O)NCC3CC3)nc2C(=O)OC(C)OC(=O)N(C)C)cc1OC (centres unmarked) [Compound 90d, 1-((dimethylcarbamoyl)oxy)ethyl 6-((cyclopropylmethyl)carbamoyl)-3-(2-((4-(N-((hexyloxy)carbonyl)carbamimidoyl)phenyl)carbamoyl)-5-methoxy-4-vinylphenyl)picolinate]","A (A = 0-1,000 ng/mL)"
